One assay has as its system KB. As to the kind of experiment: Cytotoxicity against human KB cells after 48 hrs by MTT assay. The class given is functional, cell-based. In general terms: Formazan colour is commonly taken as a measure of viable cells.
Assay [1] deals with NCI-H460. As to the kind of experiment: Induction of apoptosis in human NCI-H460 cells assessed as early apoptotic cells at 20 uM after 24 hrs by Annexin V/propidium iodide staining-based flow cytometry (reference value: 6.8%). In kind it is functional. (In general: A flow cytometer gives signals particle by particle.)
In assay [2] the test system is NCI-H460. As to the kind of experiment: Induction of apoptosis in human NCI-H460 cells assessed as early apoptotic cells at 8 uM by Annexin V/propidium iodide staining-based flow cytometry. The class given is functional, cell-based. As to conditions: TDE = time-dependent effect.
The test system of assay [3] is NCI-H460. The assay can be described thus: Induction of apoptosis in human NCI-H460 cells assessed as viable cells at 8 uM after 24 hrs by Annexin V/propidium iodide staining-based flow cytometry (reference value: 72.2%). In kind it is functional. As to conditions: NCI-H460, 24 h, read-out: Activity.
Assay [4] deals with NCI-H460. The assay can be described thus: Induction of apoptosis in human NCI-H460 cells assessed as late apoptotic cells at 8 uM after 48 hrs by Annexin V/propidium iodide staining-based flow cytometry (reference value: 14.1%). In kind it is functional.

Consider three compounds from ChEMBL document CHEMBL3297657, “Synthesis and antitumor activities of novel α-aminophosphonate derivatives containing an alizarin moiety” (Eur J Med Chem, 2014).

The IC50 is the point on the concentration scale where inhibition reaches its midpoint. A low value points to inhibition by little substance.

Take `CCOP(=O)(OCC)C(NC(=O)C(C)Oc1ccc2c(c1O)C(=O)c1ccccc1C2=O)c1cccc2ccccc12` (stereo not given): the IC50 with KB is 1020 nM. The values for the Activity in the assay on NCI-H460 [1], with NCI-H460 [2] and with NCI-H460 [4] were 38.8%, “tde” and 14.8%, respectively. Besides, in the assay on NCI-H460 [3], the viability at 8 µM was 47.5%.

In the case of `CCOP(=O)(OCC)C(NC(=O)C(C)Oc1ccc2c(c1O)C(=O)c1ccccc1C2=O)c1ccccc1OC` (stereo not given), the IC50 with KB was 880 nM. For the same compound, the Activity is 34.7% in the assay on NCI-H460 [1], “tde” with NCI-H460 [2] and 18.2% in the assay on NCI-H460 [4]. The viability at 8 µM in the assay with NCI-H460 [3] was found to be 47.5%.

Consider `CCOP(=O)(OCC)C(NC(=O)C(C)Oc1ccc2c(c1O)C(=O)c1ccccc1C2=O)c1ccccc1F` (stereo not given), for which, in the assay on KB, the half-inhibitory concentration (IC50) came to 700 nM. Further, the Activity is 55.1% in the assay on NCI-H460 [1], “tde” in the assay with NCI-H460 [2] and 9.3% in the assay with NCI-H460 [4]. Besides, in the assay with NCI-H460 [3], the viability at 8 µM is 46.3%.
